Experiments:
Micrococcus luteus [1] = assay: Antimicrobial activity against Micrococcus luteus assessed as inhibition of microbial growth at 0.03 to 3.33 ug/ml; type: functional; parameters: scale not given: the % may be the effect or the level left; details: dose 0.03-3.33 µg/ml; at 0.03 to 3.33 µg/mL
Micrococcus luteus [2] = assay: Antimicrobial activity against Micrococcus luteus assessed as inhibition of microbial growth; type: functional

Row | Compound | Activity (Micrococcus luteus [1]) | MIC (Micrococcus luteus [2])
1 | CO[C@]1(C)C[C@H](O[C@H]2[C@H](C)[C@@H](O[C@@H]3O[C@H](C)C[C@](O)(C(C)=O)[C@H]3O)[C@@H](C)C[C@](C)(O)C(=O)[C@H](C)[C@@H](OC(C)=O)[C@@H](C)[C@@H]([C@@H](C)[C@H](C)O)OC(=O)[C@@H]2C)O[C@@H](C)[C@H]1OC(C)=O | 50% | –
2 | CO[C@H]1C[C@@H](C)O[C@@H](O[C@@H]2[C@@H](C)[C@H](O[C@H]3C[C@@](C)(OC)[C@H](OC(C)=O)[C@H](C)O3)[C@@H](C)C(=O)O[C@H]([C@@H](C)[C@H](C)O)[C@H](C)[C@H](OC(C)=O)[C@@H](C)C(=O)[C@@](C)(O)C[C@@H]2C)[C@@H]1O | – | 1 µg/mL

Reference: ChEMBL document CHEMBL5236665, “Accumulation of lankamycin derivative with a branched-chain sugar from a blocked mutant of chalcose biosynthesis in Streptomyces rochei 7434AN4” (2023)
